Laboratory results published in ChEMBL document CHEMBL1201862, “PubChem BioAssay data set” (2004).
The source made the active and inactive calls.

Key:
[1] = target: T1, Caspase-3 (Homo sapiens, UniProt P42574); format: functional;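 also: Dose-response selectivity test against caspase-3 for candidate inhibitors of sentrin-specific proteases (SENPs)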
T1 sequence (P42574 whole entry): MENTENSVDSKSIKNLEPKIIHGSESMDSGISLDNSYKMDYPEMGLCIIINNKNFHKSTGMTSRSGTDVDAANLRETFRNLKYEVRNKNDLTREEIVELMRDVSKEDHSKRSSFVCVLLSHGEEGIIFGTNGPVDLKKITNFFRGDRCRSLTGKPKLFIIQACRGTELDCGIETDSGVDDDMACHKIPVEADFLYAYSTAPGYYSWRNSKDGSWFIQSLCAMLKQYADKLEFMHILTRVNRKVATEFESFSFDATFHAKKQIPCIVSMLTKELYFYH

[2] = target: T2, Sentrin-specific protease 6 (Homo sapiens, UniProt Q9GZR1); format: functional;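 also: Luminescence-based dose-response confirmatory assay of SENP6 inhibition, following up an ultra-high-throughput screen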
T2 sequence (Q9GZR1 whole entry): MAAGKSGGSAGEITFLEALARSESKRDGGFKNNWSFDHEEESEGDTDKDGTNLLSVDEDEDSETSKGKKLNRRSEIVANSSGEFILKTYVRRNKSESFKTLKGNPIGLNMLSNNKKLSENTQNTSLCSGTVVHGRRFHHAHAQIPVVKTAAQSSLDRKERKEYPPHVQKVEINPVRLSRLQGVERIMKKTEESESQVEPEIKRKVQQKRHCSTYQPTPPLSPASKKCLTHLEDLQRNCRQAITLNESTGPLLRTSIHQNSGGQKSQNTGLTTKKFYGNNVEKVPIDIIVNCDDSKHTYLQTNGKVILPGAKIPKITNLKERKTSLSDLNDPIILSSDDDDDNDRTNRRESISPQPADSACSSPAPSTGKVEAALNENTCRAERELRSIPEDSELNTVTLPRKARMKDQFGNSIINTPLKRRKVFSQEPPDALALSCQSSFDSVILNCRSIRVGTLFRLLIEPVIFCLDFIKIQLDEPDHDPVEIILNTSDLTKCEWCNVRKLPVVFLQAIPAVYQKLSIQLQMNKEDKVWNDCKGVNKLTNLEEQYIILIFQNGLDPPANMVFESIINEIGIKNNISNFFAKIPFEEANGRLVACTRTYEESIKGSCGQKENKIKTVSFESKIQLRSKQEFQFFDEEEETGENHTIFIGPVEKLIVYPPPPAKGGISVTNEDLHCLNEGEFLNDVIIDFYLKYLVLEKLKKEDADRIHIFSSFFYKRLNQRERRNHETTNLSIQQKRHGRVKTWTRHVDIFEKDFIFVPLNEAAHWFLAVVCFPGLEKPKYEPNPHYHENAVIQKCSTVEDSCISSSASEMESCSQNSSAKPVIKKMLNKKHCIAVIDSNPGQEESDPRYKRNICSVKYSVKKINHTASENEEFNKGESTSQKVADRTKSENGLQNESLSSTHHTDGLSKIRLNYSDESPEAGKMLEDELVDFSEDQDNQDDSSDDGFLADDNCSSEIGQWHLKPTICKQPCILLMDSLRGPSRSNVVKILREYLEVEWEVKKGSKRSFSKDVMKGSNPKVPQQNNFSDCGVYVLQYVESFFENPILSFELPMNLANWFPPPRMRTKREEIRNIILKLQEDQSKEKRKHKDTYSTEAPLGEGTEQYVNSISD

[3] = target: T3, Sentrin-specific protease 7 (Homo sapiens, UniProt Q9BQF6); format: functional;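 also: Luminescence-based dose-response confirmation of ultra-high-throughput screening hits, measuring inhibition of SENP7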
T3 sequence (Q9BQF6 whole entry): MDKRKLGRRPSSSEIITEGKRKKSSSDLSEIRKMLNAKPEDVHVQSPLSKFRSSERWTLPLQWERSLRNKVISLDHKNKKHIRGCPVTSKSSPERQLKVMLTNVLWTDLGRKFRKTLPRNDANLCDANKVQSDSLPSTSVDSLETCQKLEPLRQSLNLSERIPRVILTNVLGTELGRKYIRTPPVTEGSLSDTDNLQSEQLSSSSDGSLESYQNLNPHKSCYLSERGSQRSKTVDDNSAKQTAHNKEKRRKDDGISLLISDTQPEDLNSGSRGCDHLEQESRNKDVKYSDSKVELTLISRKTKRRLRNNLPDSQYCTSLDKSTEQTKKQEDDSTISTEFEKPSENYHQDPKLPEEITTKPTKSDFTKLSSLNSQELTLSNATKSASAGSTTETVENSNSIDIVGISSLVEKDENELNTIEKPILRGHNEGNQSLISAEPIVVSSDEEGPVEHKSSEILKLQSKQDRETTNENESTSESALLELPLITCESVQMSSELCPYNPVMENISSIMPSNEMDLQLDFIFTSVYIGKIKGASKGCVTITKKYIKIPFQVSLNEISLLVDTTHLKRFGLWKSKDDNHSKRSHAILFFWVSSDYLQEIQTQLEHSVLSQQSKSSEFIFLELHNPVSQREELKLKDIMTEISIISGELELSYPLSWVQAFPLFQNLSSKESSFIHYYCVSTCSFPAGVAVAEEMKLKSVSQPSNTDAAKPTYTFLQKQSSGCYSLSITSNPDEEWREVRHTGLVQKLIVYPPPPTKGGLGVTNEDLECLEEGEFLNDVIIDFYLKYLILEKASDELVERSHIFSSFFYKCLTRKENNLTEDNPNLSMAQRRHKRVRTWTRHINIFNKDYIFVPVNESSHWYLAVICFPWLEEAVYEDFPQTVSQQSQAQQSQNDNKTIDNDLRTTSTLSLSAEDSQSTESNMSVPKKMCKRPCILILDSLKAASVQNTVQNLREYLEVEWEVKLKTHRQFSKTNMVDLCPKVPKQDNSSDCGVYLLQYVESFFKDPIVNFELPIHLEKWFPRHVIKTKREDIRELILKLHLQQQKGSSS

[4] = target: T4, Sentrin-specific protease 8 (Homo sapiens, UniProt Q96LD8); format: functional;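 also: luminescence read-out of SENP8 inhibition, dose-response confirmation following an ultra-high-throughput screen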
T4 sequence (Q96LD8 whole entry): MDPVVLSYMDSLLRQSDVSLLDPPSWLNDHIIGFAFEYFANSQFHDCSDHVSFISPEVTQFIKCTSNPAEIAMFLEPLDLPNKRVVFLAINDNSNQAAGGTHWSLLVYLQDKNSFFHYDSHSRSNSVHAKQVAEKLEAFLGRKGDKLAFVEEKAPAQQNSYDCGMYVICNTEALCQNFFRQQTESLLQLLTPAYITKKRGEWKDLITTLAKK

[5] = target: T5, High affinity choline transporter 1 (Homo sapiens, UniProt Q9GZV3); assay: human choline transporter blockers, potency – cell-based, 5-point CRC, membrane potential dye, dose response (AID 504840); format: functional
T5 sequence (Q9GZV3 whole entry): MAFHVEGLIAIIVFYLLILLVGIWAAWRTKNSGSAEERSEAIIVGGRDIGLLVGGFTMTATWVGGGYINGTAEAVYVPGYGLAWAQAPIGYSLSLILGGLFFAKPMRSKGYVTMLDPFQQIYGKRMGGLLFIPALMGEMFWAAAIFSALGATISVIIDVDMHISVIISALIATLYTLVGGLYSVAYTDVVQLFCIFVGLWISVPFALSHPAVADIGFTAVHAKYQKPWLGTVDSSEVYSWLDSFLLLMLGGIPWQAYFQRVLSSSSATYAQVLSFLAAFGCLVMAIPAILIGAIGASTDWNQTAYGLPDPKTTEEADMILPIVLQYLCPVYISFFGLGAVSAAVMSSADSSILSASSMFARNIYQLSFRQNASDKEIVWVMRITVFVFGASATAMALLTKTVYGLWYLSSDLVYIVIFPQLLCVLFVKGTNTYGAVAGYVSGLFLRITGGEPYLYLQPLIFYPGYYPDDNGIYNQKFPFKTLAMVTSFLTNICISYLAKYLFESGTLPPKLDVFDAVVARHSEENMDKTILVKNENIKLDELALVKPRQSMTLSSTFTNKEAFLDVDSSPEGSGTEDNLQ

[6] = system: HeLa; assay: ATP-based viability loss in HeLa cells – cell-based, CellTiter-Glo luminescence, cherry-pick samples, cytotoxicity control for MITF activator project, dose response (AID 540259); format: functional; details: Homo sapiens
[7] = target: DNA dC->dU-editing enzyme APOBEC-3G (Homo sapiens, UniProt Q9HC16); assay: Dose Response confirmation of small molecule APOBEC3G DNA Deaminase Inhibitors via a fluorescence-based single-stranded DNA deaminase assay. [Related pubchem assays (depositor defined):AID493012, AID493028]; format: functional
[8] = target: Induced myeloid leukemia cell differentiation protein Mcl-1 (Homo sapiens, UniProt Q07820); format: functional
[9] = target: T6, Polyadenylate-binding protein 1 (Homo sapiens, UniProt P11940); assay: MLLE binding blockers, Cy5 peptide tracer – biochemical, fluorescence polarization, Cy5-PAM2 peptide, secondary, miRNA deadenylation inhibitor project, dose response (AID 602260); format: functional; details: read-out: IC50_Mean
[10] = system: HEK293; assay: EBV LMP1 TES2 canonical NF-kB signalling blockers – cell-based, HEK293, luciferase, cherry-pick, dose response (AID 588343); format: functional; details: Homo sapiens
[11] = system: Vero; assay: cells; format: functional; details: Chlorocebus sabaeus
[12] = system: Streptococcus; assay: GAS UMAA2166 growth inhibition – luminescence, BacTiterGlo, counter-screen for streptokinase expression inhibitor project, dose response (AID 1915); format: functional, organism-based;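 also: potency for reduction of bacterial viability or growth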
[13] = system: Streptococcus sp. 'group A'; assay: Streptococcus pyogenes SK(-)GAS viability under kanamycin – luminescence, BacTiterGlo, confirmation, counter-screen for streptokinase expression inhibitor project, dose response (AID 1900); format: functional, organism-based
[14] = target: T6, Polyadenylate-binding protein 1; assay: MLLE domain peptide-binding blockers, IC50 – biochemical, fluorescence polarization, FITC-PAM2 peptide, dose response (AID 602259); format: functional; details: read-out: IC50_Mean
[15] = system: H4; assay: Luminescence Cell-Based Dose Response HTS to Identify Activators of 5'UTR Stem-Loop Driven Prion Protein mRNA Translation in H4 Neuroglioblastoma Cells. [Related pubchem assays: 1829 (Project Summary), 1814 (Primary HTS)]; format: functional; details: Homo sapiens
[16] = Luminescence Cell-Based Dose Response HTS to Identify Activators of Luciferase Translation or Activity in H4 […] Cells. [Related pubchem assays: 1829 (Project Summary), 1814 (Primary HTS)]; format: functional
[17] = viability of uninfected HEp-2 cells – cell-based, HTS, cytotoxicity control for RSV inhibitor project, dose response (AID 2410); format: functional; details: human respiratory syncytial virus
[18] = OVCAR8 cell viability loss – plate reader, dry powder samples, PAX8 project, dose response (AID 743197); format: functional, cell-based; details: OVCAR-8
[19] = target: Paired box protein Pax-8 (Homo sapiens, UniProt Q06710); assay: PAX8 transcriptional activity inhibition in RMG-I – RMG-I cells, luciferase, cherry-pick, dose response (AID 687027); format: functional, cell-based;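 also: luciferase reporter driven by Pax8 target thyroperoxidase promoter measured by SteadyGlo luminescence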
Sequence of Paired box protein Pax-8 (Q06710 whole entry): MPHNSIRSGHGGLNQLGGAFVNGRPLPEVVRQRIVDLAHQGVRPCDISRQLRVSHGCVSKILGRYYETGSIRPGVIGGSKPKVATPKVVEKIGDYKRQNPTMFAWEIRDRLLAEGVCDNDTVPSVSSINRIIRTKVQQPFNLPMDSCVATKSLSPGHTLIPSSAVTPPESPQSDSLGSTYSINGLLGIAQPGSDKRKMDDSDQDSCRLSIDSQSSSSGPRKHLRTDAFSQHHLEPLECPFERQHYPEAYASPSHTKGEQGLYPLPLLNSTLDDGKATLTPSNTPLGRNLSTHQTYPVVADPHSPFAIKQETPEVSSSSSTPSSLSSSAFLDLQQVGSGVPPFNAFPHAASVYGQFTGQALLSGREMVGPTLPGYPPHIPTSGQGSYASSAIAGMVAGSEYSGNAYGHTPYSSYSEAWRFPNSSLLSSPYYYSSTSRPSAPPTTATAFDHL

Sequence of DNA dC->dU-editing enzyme APOBEC-3G (Q9HC16 whole entry): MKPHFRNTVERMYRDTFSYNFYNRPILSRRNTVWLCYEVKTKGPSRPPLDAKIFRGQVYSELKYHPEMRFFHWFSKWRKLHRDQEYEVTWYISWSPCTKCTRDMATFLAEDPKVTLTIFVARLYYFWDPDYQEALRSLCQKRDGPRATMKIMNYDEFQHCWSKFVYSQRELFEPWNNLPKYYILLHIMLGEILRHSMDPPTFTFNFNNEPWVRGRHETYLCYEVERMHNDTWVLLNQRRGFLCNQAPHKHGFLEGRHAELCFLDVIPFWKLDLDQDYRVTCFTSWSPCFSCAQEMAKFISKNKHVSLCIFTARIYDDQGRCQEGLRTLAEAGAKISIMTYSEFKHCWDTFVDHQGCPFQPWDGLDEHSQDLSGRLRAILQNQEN
Sequence of Induced myeloid leukemia cell differentiation protein Mcl-1 (Q07820 whole entry): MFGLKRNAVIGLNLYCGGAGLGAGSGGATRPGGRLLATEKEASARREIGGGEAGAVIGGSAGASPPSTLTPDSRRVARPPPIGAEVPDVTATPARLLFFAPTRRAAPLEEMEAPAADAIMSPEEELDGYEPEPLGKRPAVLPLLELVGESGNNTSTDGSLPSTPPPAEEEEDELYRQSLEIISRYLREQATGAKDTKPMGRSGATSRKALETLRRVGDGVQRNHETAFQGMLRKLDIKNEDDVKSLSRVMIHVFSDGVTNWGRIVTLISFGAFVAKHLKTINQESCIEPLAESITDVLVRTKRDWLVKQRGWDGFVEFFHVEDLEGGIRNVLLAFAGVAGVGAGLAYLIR
T6 sequence (P11940 whole entry): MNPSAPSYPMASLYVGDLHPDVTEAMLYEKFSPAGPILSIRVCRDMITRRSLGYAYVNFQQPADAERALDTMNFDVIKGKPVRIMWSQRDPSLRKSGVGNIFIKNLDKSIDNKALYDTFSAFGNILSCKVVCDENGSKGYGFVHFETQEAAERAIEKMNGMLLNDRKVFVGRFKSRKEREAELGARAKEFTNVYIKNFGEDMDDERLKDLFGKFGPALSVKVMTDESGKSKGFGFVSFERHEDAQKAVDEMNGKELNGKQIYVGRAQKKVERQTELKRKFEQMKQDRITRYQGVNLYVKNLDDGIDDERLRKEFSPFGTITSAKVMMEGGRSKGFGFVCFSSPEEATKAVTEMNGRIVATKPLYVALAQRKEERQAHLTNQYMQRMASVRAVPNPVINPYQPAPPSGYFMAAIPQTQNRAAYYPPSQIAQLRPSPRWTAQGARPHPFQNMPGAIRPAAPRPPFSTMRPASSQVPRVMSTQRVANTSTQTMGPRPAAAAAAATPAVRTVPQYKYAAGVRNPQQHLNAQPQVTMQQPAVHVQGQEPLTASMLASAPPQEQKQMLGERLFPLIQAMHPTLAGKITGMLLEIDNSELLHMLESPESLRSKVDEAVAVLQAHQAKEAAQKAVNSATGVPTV

Cc1ccccc1-c1nc2sc3c(c2c(=O)o1)CCC3
IC50 [1]: 1.73 µM (active) | IC50 [2]: 3.42 µM (active) | IC50 [3]: 2.23 µM (active) | IC50 [4]: > 100 µM (inactive)

O=c1c2ccccc2nnn1CSc1nc2sc3c(c2c(=O)n1CC1CCCO1)CCC3 (stereo not drawn)
IC50 [5]: 15.8 µM (active)

Cc1ccc(-n2nc3ccc(NC(=O)C(C)C)cc3n2)cc1
AC50 [6]: 54.8 µM (active)

O=C(O)CC(Sc1nnc(S)s1)C(=O)O (stereo not drawn)
IC50 [7]: 45.1 µM (active)

COc1cccc(CN(C)C(=O)c2ccc(COc3ccc(Cl)cc3)cc2)c1OC
AC50 [6]: 54.8 µM (active)

CC1=C(C(=O)OCC(C)C)C(c2ccsc2)NC(=O)N1 (stereo not drawn)
IC50 [8]: 2.4 µM (not active)

Cc1ccc(-c2cccc(CN3CCN(C(C)C)C(CCO)C3)c2)o1 (stereo not drawn)
IC50 [5]: 7.85 µM (active)

C=CCn1c(O)c(N=NC(S)=Nc2ccccc2F)c2ccccc21
IC50 [9]: > 66 µM (inactive) | AC50 [10]: 2.88 µM (active) | CC50 [11]: 18.2 µM (active) | EC50 [12]: 1.08 µM (active) | EC50 [13]: 0.628 µM (active) | IC50 [14]: > 66 µM (inactive)

COc1ccccc1-c1cnn2c(NC3CCCC3)cc(C)nc12
EC50 [15]: 16.2 µM (active) | EC50 [16]: 0.139 µM (active) | CC50 [17]: 40 µM (active) | AC50 [6]: 117 µM (active)

Cc1nc(C(C)NC(=O)CCc2nnc(CCCc3ccccc3)o2)c(C)s1 (stereo not drawn)
AC50 [6]: 314 µM (active)

CCn1c(S)nnc1CCCCc1nnc(S)n1CC
IC50 [7]: 25.8 µM (active)

Cn1c(SCc2ccccc2Cl)nc2ccccc21
AC50 [6]: 75 µM (active)

COc1cc(SC)ccc1C(=O)N1CCN(c2ccccc2)CC1
IC50 [8]: < 0.4 µM (not active)

Cc1ccc(SCC2=NN(c3nc(C)cc(C)n3)C(=O)C2)cc1
IC50 [5]: 10.5 µM (active)

CC(C)OC(=O)Cn1cnc2ccc(Br)cc2c1=O
IC50 [8]: 24.1 µM (not active)

COc1ccc(NC(C)=O)cc1S(=O)(=O)Nc1ccccc1C(=O)NCCc1ccccc1
EC50 [15]: 50.7 µM (active) | EC50 [16]: 0.519 µM (active) | AC50 [6]: 230 µM (active)

CCOC(=O)c1c(C)oc2c1c(C(c1ccncc1)N1CCOCC1)c(O)c1ccccc12 (stereo not drawn)
IC50 [8]: 1.16 µM (active)

COc1ccc(N2C(=O)CC(Sc3n[nH]c(-c4ccc(C)cc4)n3)C2=O)cc1 (stereo not drawn)
IC50 [7]: 21.2 µM (active)

CN1c2ccc(-c3cccc(F)c3)cc2[C@@H]2[C@@H](CCN2C(=O)Cc2ccccc2)[C@@H]1CO
AC50 [18]: > 70 µM (inactive) | AC50 [19]: 10.2 µM (active)

C[C@@H]1CN([C@@H](C)CO)C(=O)c2cc(NS(=O)(=O)c3ccc(F)cc3)ccc2O[C@@H]1CN(C)Cc1ccc(C(F)(F)F)cc1
AC50 [18]: 49.5 µM (active) | AC50 [19]: 15.3 µM (active)

COc1ccc(-c2ccc3c(c2)[C@@H]2[C@@H](CCN2C(=O)C2CCCC2)[C@H](CO)N3C)cc1
AC50 [18]: > 70 µM (inactive) | AC50 [19]: 14.2 µM (active)

O=C(N/N=C/C1CC=CCC1)c1cc(-c2cccnc2)nc2ccccc12 (stereo not drawn)
IC50 [5]: 15.1 µM (active)
